Results on twelve molecules are retold here after US20260152480A1, “POLYCYCLIC COMPOUND AND USE THEREOF” (TYK MEDICINES , INC., priority 2022, published 2026).

Series [1] deals with Human pleural mesothelioma cells NCI-H226. The series can be described thus: Proliferation inhibition assay of human pleural mesothelioma cells NCI-H226 (CCK8). The class given is cell-based. The following applies: 72 h, 3 days incubation. From the text: Experimental Example 1 Cell Anti-Proliferation Test
Proliferation Inhibition Assay of Human Pleural Mesothelioma Cells NCI-H226 by YAP-TEAD Inhibitor Compounds
Experimental materials and equipment: Human pleural mesothelioma cells NCI-H226 were purchased from Nanjing Cobioer Biosciences CO., LTD. RPMI-1640 medium (Bio-Channel), DMSO (dimethyl sulfoxide), CCK8 (WST-8) cell analysis kit (Beyotime), 0.25% EDTA-Tripsin (trypsin solution), 1×PBS (phosphate buffer, PH7.2), 96-well plate (Corning), fetal bovine serum (FBS), 10,000 U/mL penicillin-G/streptomycin, high-speed cryo-centrifuge (EPPENDORF 5810R), enzyme-linked immunoassay (Tecan Spark).
• A) Tumor cells were cultured in RPMI-1640 (containing 10% FBS and 100 U/mL penicillin-G/streptomycin) at 37° C., 5% CO^2 and saturated humidity until 80-90% density. • B) Removed the culture medium from 10 cm Petri dishes; • C) Rinsed the cells once with 10 ml 1×PBS; • D) Added 4 ml 0.25% EDTA-Tripsin into 37° C., 5% CO^2 incubator for trypsin digestion for 5 minutes, transferred to 15 ml centrifuge tube, centrifuged at 200 g for 5 minutes, discarded the supernatant to get cell precipitate; • E) Resuspend with 4 ml DMEM medium, count and adjust to 10,000 cells/ml. • F) Added cell suspension to 96-well plate with 100 μL per well volume and incubate overnight at 37° C., 5% CO^2 incubator.
• A) Preparation of gradient dilution solution of tested compounds: the test compounds were configured into 1 mM reservoir solution. Then 1.5 μl of the reservoir solution was dissolved in 1.5 ml of DMSO-free culture solution, and then a 3-fold serial gradient dilution was performed with 0.1% DMSO culture solution for a total of 9 concentrations, and the concentrations of the compounds after dilution were as follows: • 333.33 nM, 111.11 nM, 37.03 nM, 12.35 nM, 4.15 nM, 1.37 nM, 0.46 nM, 0.15 nM • B) After thorough mixing, 100 μL of culture compound solution was taken separately to replace the culture solution in the cell culture plate, with 4 replicate wells for each concentration; • C) The cells were transferred to the incubator and incubated for 3 days.
• A) Removed the cell culture plate and added 10 μl of CCK-8 (WST-8) solution per well in the biosafety cabinet. • B) Placed the cell culture plate back into the incubator and continued incubation for 3 hours. • C) Determined the absorbance value by selecting 450 nm on a TECAN enzyme-linked immunoassay detector.
The cell viability (% Cell Viability) was calculated using the following formula.
[formula] • A (dosing): absorbance of wells with cells, CCK8 solution and drug solution • A (blank): absorbance of wells with medium and CCK8 solution but no cells • A (0 dosing): absorbance of wells with cells, CCK8 solution and no drug solution • Cell viability: Cell proliferation viability or cytotoxicity viability IC50 values were obtained by curve fitting with GraphPad Prism 8 software.

The test system of another series is YAP-TEAD. Briefly: Nano luciferase method to detect YAP-TEAD inhibitor activity (293T cells transfected with pGL3B-8×GTiiC-nLuc-CMV-fLuc). The class given is cell-based. The following applies: Homo sapiens, HEK-293T, transfected 293T cells, 48 hours incubation, read-out: Nano Luciferas detection (IC50). An excerpt: Experimental Example 2 Nano Luciferase Method to Detect YAP-TEAD Inhibitor Activity
(1) Experimental materials and equipment: 293T cells were purchased from Nanjing Cobioer Biosciences CO., LTD. DMEM medium (high sugar, phenol red free, Bio-Channel), DMSO (dimethyl sulfoxide), Lipo6000™ transfection reagent (Beyotime), pGL3B-8×GTiiC-nLuc-CMV-fLuc plasmid, 0.25% EDTA Tripsin (trypsin solution), 1×PBS (phosphate buffer, PH7.2), 96-well white cell culture plate (PerkinElmer), Fetal Bovine Serum (FBS), 10,000 U/mL penicillin-G/streptomycin, High-speed cryo-centrifuge (EPPENDORF 5810R), 37° C. CO^2 incubator, Vi-Cell® cell counter, Envision microplate reader (PerkinElmer).
Resuscitated 293T cells were inoculated into 10 cm petri dishes and placed in a 5% CO^2 incubator at a constant temperature of 37° C. To ensure transfection efficiency, cells in the logarithmic phase (cell density of about 50%-70%) should be used.
One day before transfection, cells in logarithmic phase were digested with Trypsin-EDTA, the reaction was terminated by adding medium, and the cell suspension was made by blowing and mixing with a pipette.
The cell concentration was determined using Vi-cell and diluted to a suspension of 5*10^5 cells per milliliter. Once the cell suspension was prepared, it was gently mixed and 10 ml of liquid was added to a 10 cm petri dish. […] The cells were incubated in a 5% CO^2 incubator at 37° C. for 1 day.
Take two clean and sterile centrifuge tubes, added 750 μL of opti-MEM Medium without antibiotics and serum respectively, then added […] of plasmid (pGL3B-8×GTiiC-nLuc-CMV-fLuc) to one of the tubes and gently blown with a pipette for mixing; the other tube was added with Lipo6000 transfection reagent and gently blown with a pipette for mixing. After standing at room temperature for 5 minutes, the culture medium containing DNA was gently added to the culture medium containing Lipo6000 transfection reagent, mixed by gently inverting the centrifuge tube, and stood at room temperature for 5 minutes.
The above mixture was added evenly dropwise to a 10-cm petri dish and replaced with fresh complete medium after 6 h of incubation.
After 1 day of transfection, Trypsin EDTA was used to digest the cells, medium was added to terminate the reaction, and a cell suspension was made by blowing and mixing with a pipette.
Cell concentration was determined using Vi-cell, and diluted to a suspension of 20,000 cells per milliliter.
After the cell suspension was prepared, it was gently mixed and 100 μL was added to each well in a 96-well plate so that the density of cells to be measured was 2000 per well.
The inoculated cell culture plates were incubated in an incubator, and the compounds in concentration gradients were added after about 24 hours.
The 10 mM compound reservoir solution was diluted to 50 μM with culture medium, and 50 μM compound solution was added sequentially to the third column of the deep-well plate, and 216 μL of culture medium containing 0.5% DMSO to the fourth to eleventh columns.
Gradient dilution: 100 μL of solution was pipetted from the third column and added to the fourth column, after mixing; another 100 μL of solution was pipetted from the fourth column and added to the fifth column, and the operation was repeated until the eleventh column.
Using a multichannel pipette, 25 μL of compound solution was pipetted from the deep-well plate and added to the 96-well culture plate, and each compound was repeated four times on the 96-well plate. A concentration gradient with a maximum concentration of 10,000 nM, 1:3.16, was eventually formed on the 96-well plate.
The 96-well plate was incubated in a 5% CO^2 incubator at a constant temperature of 37° C. for 48 hours, then removed and equilibrated at room temperature for 10 minutes.
100 μL of detection reagent was added to each well and placed on a horizontal shaker at low speed for 10 minutes to fully lyse the cells. […]

A short description of series [2]: Pharmacokinetic study of the drug, oral administration to rats (plasma, cerebrospinal fluid, brain tissue). The class given is in vivo. The following applies: SD rat, 10 mg/kg, single; for AUC(0-inf) / AUC(0-t) / Cmax / MRT last / Tmax: plasma; for Kp: brain tissue (post perfusion) and plasma, read-out: B/P value; for Kp uu: in vivo, read-out: Kpuu Value. An excerpt:
Experimental Example 3 Pharmacokinetic Study of the Drug
Oral Administration Solvent: 5% DMSO+10% Solutol HS15+85% Saline
Oral administration preparation process: weighed the appropriate amount of powder, added the appropriate volume of DMSO, vortex, then added the appropriate volume of Solutol solution, vortex, and added the appropriate amount of saline, vortex ultrasound into a homogeneous and clarified state of the preparation solution.
The animal room was equipped with an air-conditioning system and well ventilated, and the indoor temperature was maintained in the range of 20-26° C., and the humidity was maintained in the range of 40%-70%. The animal room was artificially illuminated with 12 hours of light and 12 hours of dark (except for the working light that needed to be turned on for experimental operation and cleaning), and the experimental animals were free to feed and drink.
Animals were purchased and fed normally for at least 3 days, and rats that were examined by a veterinarian and had qualified physical conditions were enrolled in this experiment; each rat was labeled with a tail mark. Animals in the oral administration group were fasted overnight the day before administration, and resumed feeding and drinking freely 4 hours after administration.
Before administration, checked the state of the administered preparation, ensured the homogeneity of the preparation by vortexing, stirring or oscillating, and calculated the theoretical volume of the administered drug for each SD rat in each group according to the following formula.
Mode of administration: Oral administration to rats, fasted overnight prior to administration.

The mark [3] stands for this setting: reference compounds of WO2009081259A1.

By IC50 is commonly meant the concentration that gives 50% inhibition. One may read the AUC(0-inf) as total exposure, with the tail of the curve extrapolated. Higher therefore signals more exposure. For orientation: AUC(0-t) means the area under the concentration-time curve up to a stated or last time point. Low readings indicate less exposure, high ones more exposure. In general, Cmax refers to the highest concentration seen after dosing. Broadly, the MRT last is a mean duration of stay, worked out from the concentration-time curve. Usually Tmax stands for the time from dosing to the highest level.

Like-named read-outs stand apart in the source and are kept apart here.

Regarding `C=CC(=O)N1CCC(c2cccnc2Nc2ccc(C(F)(F)F)cc2)CC1` [Compound T1], in series [1], the IC50 is at most 100 nM. In the series with YAP-TEAD, the IC50 is at most 100 nM. In addition, in series [2], the “HL—” value came to 1.93 h, the total exposure AUC(0-inf) was determined as 5260 ng·h/mL, the AUC(0-t) was 5250 ng·h/mL and the Cmax came to 919 ng/mL. In addition, in series [2], the MRT last was determined as 4.28 h and the Tmax was 1.33 h.

`C=CC(=O)N1CCC(c2nccnc2Nc2ccc(C(F)(F)F)cc2)CC1` [Compound T16] came in with an IC50 in series [1] of at most 100 nM. Moreover, the IC50 in the series with YAP-TEAD is at most 100 nM. Moreover, in series [2], the “HL—” value came to 2.07 h, the Kp was 1.41, the Kp uu was 0.518 and the AUC(0-inf) is 17400 ng·h/mL. Also, in series [2], the AUC(0-t) is 17300 ng·h/mL, the Cmax came out at 2840 ng/mL, the MRT last stood at 4.48 h and the Tmax turned out to be 2.67 h.

In turn, `C=CC(=O)N1CCC(c2cc(C)cnc2Nc2ccc(C(F)(F)F)cc2)CC1` [Compound T22] returned an IC50 in series [1] of at most 100 nM. Besides, in the series with YAP-TEAD, the IC50 is at most 100 nM. In addition, in series [2], the “HL—” value is 2.64 h, the AUC(0-inf) worked out at 3500 ng·h/mL, the AUC(0-t) is 3290 ng·h/mL and the Cmax worked out at 594 ng/mL. Also, in series [2], the MRT last was found to be 3.97 h and the Tmax is 2 h.

For the molecule `C=CC(=O)N1CCC(c2ccc(Cl)nc2Nc2ccc(C(F)(F)F)cc2)CC1` [Compound T27], in series [1], the IC50 is 100 to 1000 nM. Also, the IC50 in the series with YAP-TEAD is at most 100 nM. Besides, in series [2], the “HL—” value is 3.03 h, the AUC(0-inf) was 19600 ng·h/mL, the AUC(0-t) is 19400 ng·h/mL and the concentration peaked (Cmax) at 1880 ng/mL. In series [2], the MRT last was 6.89 h and the Tmax turned out to be 3.33 h.

The molecule `C=CC(=O)N1CCC(c2c(Nc3ccc(C(F)(F)F)cc3)ncc3ccccc23)CC1` [Compound T37] displayed an IC50 in series [1] of 100 to 1000 nM. The IC50 in the series with YAP-TEAD was in the range of 100 to 1000 nM. In series [2], the “HL—” value was 13.97 h, the AUC(0-inf) turned out to be 18000 ng·h/mL, the AUC(0-t) came to 12300 ng·h/mL and the Cmax worked out at 804 ng/mL. In series [2], the MRT last is 9.85 h and the Tmax was 4.67 h.

Regarding `C=CC(=O)N1CCC(c2cc(Cl)cnc2Oc2ccc(C(F)(F)F)cc2)CC1` [Compound T40], the IC50 in series [1] is at most 100 nM. Besides, the IC50 in the series with YAP-TEAD was at most 100 nM. In addition, in series [2], the “HL—” value is 4.40 h, the Kp is 1.88, the Kp uu was determined as 0.286 and the AUC(0-inf) was found to be 18000 ng·h/mL. In series [2], the AUC(0-t) was found to be 17500 ng·h/mL, the highest level (Cmax) was 1650 ng/mL, the MRT last stood at 6.75 h and the Tmax was found to be 1.67 h.

In turn, `C=CC(=O)N1CCC(c2nccnc2Oc2ccc(C(F)(F)F)cc2)CC1` [Compound T58] came in with an IC50 in series [1] of at most 100 nM. In addition, the IC50 in the series with YAP-TEAD was at most 100 nM. For the same molecule, in series [2], the “HL—” value is recorded as 2.67 h, the Kp came to 2.01, the Kp uu worked out at 0.269 and the AUC(0-inf) was 7560 ng·h/mL. For the same molecule, in series [2], the area under the curve AUC(0-t) turned out to be 7540 ng·h/mL, the Cmax amounted to 1180 ng/mL, the MRT last amounted to 5.81 h and the Tmax was 2 h.

As for `FC(F)(F)c1ccc(Nc2ncccc2C2CCNCC2)cc1` [Reference compound 3, reference compound], the IC50 (in series [1] (setting [3]); in the series with YAP-TEAD (setting [3])) was over 5000 nM each time.

With `FC(F)(F)c1ccc(Nc2ncc(Cl)cc2C2CCNCC2)cc1` [Reference compound 4, reference compound], the IC50 (in series [1] (setting [3]); in the series on YAP-TEAD (setting [3])) was over 5000 nM each time.

As for `FC(F)(F)c1ccc(Nc2ncc(C(F)(F)F)cc2C2CCNCC2)cc1` [Reference compound 5, reference compound], the IC50 (in series [1] (setting [3]); in the series with YAP-TEAD (setting [3])) was over 5000 nM each time.

Take `FC(F)(F)c1ccc(Oc2ncccc2C2CCNCC2)cc1` [Reference compound 6, reference compound]: the IC50 (in series [1] (setting [3]); with YAP-TEAD (setting [3])) was over 5000 nM each time.

Regarding `FC(F)(F)c1ccc(Oc2ncc(Cl)cc2C2CCNCC2)cc1` [Reference compound 7, reference compound], the IC50 (in series [1] (setting [3]); in the series on YAP-TEAD (setting [3])) was over 5000 nM in each case.
